Where a SMILES comes first, the peptide text is derived from it. Where no end group is shown, it is not given here.
How the values were obtained:
[1] = molecular target: HLA-DRB1*04:01 (DR0401) protein (Homo sapiens, UniProt P01903+P01911, A100K/A169T/F76Y/I96L/K127E/L162R/M171V/N62H/P40V/Q125Y/R42H/S133A/S149N/S66Y/V115G/V209L/W38E); experiment: DR0401 peptide binding competition assay
[2] = tested on: HIP-specific T-cell clones; experiment: Proliferation of HIP-specific T-cell clones in response to human islet fractions; assay type: cell-based; settings: label = specificity of the clone; compared with the unpulsed control condition
[3] = tested on: CD4+ T cells in peripheral blood of subjects with T1D; experiment: Ex vivo tetramer analysis of T-cell frequency; assay type: cell-based, human; settings: DR0401 tetramers, ex vivo enrichment

| Compound | IC50 [1] [nM] | Proliferation of the HIP-reactive clone in response to human islets (in words) [2] | Average frequency of HIP-reactive T cells [3] |
| --- | --- | --- | --- |
| VCGERGFFEELVARSE [HIP-4.1] | 2800 | – | – |
| QPLALEGSALSSQHQA [HIP-4.40] | 2400 | – | – |
| SLQKRGIVEELVARSE [HIP-4.18] | 1800 | – | – |
| CC[C@H](C)[C@H](N)C(=O)N[C@@H](CS)C(=O)N[C@@H](CO)C(=O)N[C@@H](CC(C)C)C(=O)N[C@@H](Cc1ccc(O)cc1)C(=O)N[C@@H](CCC(N)=O)C(=O)N[C@@H](CC(C)C)C(=O)N[C@@H](CCC(=O)O)C(=O)N[C@@H](Cc1ccccc1)C(=O)N[C@H](C(=O)N[C@@H](CC(N)=O)C(=O)N[C@@H](CCC(N)=O)C(=O)N[C@@H](Cc1c[nH]cn1)C(=O)N[C@@H](CC(C)C)C(=O)N[C@@H](CS)C(=O)NCC(=O)O)C(C)C [HIP-4.4] (H-ICSLYQLEFVNQHLCG-OH; N-terminus and C-terminus assumed) | – | not above the unpulsed control condition | 8 cells per million CD4+ T cells |
| CSLYQLENSVPHFSDE [HIP-4.39] | 240 | – | – |
| HLVEALYLEELVARSE [HIP-4.2] | 440 | – | – |

Reference: publication PMC7306133 (Diabetes, 2020)
